From patent US9597407B2, “Targeted antimicrobial moieties” (C3 Jian, Inc., priority 2009, dated 2017)
Ends that are not written are not given here.

Legend:
microorganisms [1] = assay: Peptide activities: binding, antimicrobial, growth or phenotype altering (Table 8)
Description: In certain embodiments, peptides described herein can have multiple activities. Thus for example, a peptide can have both binding/targeting activity and antimicrobial activity. Such peptides can be used, e.g., in a chimeric construct, for any or all of these properties. Thus, for example, a peptide designated “B” in Table 8 can be used as a targeting peptide. If it is also designated G or M it can also be used for antimicrobial activity.

microorganisms [2] = assay: Morphology, biofilm and growth disruption by peptides (Table 5); format: cell-based; set-up: key: A: Peptide aggregates; B: Less hyphal formation; Clumps; Diffuse clumps and small polyps; F: Diffuse growth; H: Thin; I: Growth inhibition; Microcolony formation; Rippled; Small polyps; Thick; W: Halo formation on top, microlonies on bottom
Description: In certain embodiments peptides that induce alterations in phenotype or other biological activities can also be used as antimicrobial effector moieties.

## PF-526 (VLLLFIFQPFQKQLL-NH2)
Microorganisms [1]
  Activities: G B
Microorganisms [2]; C. albicans
  Organism, effect (morphology, biofilm and growth disruption): C. albicans (C)
Microorganisms [2]; E. coli
  Organism, effect (morphology, biofilm and growth disruption): E. coli (R)
Microorganisms [2]; MRSA
  Organism, effect (morphology, biofilm and growth disruption): MRSA (C)
Microorganisms [2]; S. epidermidis
  Organism, effect (morphology, biofilm and growth disruption): S. epidermidis (C)
Microorganisms [2]; S. pneumoniae
  Organism, effect (morphology, biofilm and growth disruption): S. pneumoniae (R)

## PF-357 (MLTIIIGFIFWTMTLMLGYLIGEREGRKHE; Peptide with targeting and/or antimicrobial activity)
Microorganisms [1]
  Activities: G B
Microorganisms [2]; M. luteus
  Organism, effect: M. luteus (C)
Microorganisms [2]; MRSA
  Organism, effect: MRSA (M)
Microorganisms [2]; S. epidermidis
  Organism, effect: S. epidermidis (M)
Microorganisms [2]; S. pneumoniae
  Organism, effect: S. pneumoniae (M)

## PF-380 (KKIIPLITLFVVTLVG; Peptide with targeting and/or antimicrobial activity)
Microorganisms [1]
  Activities: G B
Microorganisms [2]; C. jejuni
  Organism, effect: C. jejuni (D)
Microorganisms [2]; E. coli
  Organism, effect: E. coli (C)
Microorganisms [2]; E. faecalis
  Organism, effect: E. faecalis (C)
Microorganisms [2]; MRSA
  Organism, effect: MRSA (D)
Microorganisms [2]; P. aeruginosa
  Organism, effect: P. aeruginosa (A)
Microorganisms [2]; S. epidermidis
  Organism, effect: S. epidermidis (C)
Microorganisms [2]; S. pneumoniae
  Organism, effect: S. pneumoniae (D)

## PF-376 (MTVFEALMLAIAFATLIVKISNKNDKK; Peptide with targeting and/or antimicrobial activity)
Microorganisms [1]
  Activities: G B
Microorganisms [2]; E. coli
  Organism, effect: E. coli (C)
Microorganisms [2]; E. faecalis
  Organism, effect: E. faecalis (C)
Microorganisms [2]; MRSA
  Organism, effect: MRSA (C)
Microorganisms [2]; S. epidermidis
  Organism, effect: S. epidermidis (C)

## PF-475 (MREKVRFTQAFKLFWTNYFNFKGRSRRSEY; Peptide with targeting and/or antimicrobial activity)
Microorganisms [1]
  Activities: G B
Microorganisms [2]; C. albicans
  Organism, effect (morphology, biofilm and growth disruption): C. albicans (B)
Microorganisms [2]; C. jejuni
  Organism, effect (morphology, biofilm and growth disruption): C. jejuni (R)
Microorganisms [2]; E. faecalis
  Organism, effect (morphology, biofilm and growth disruption): E. faecalis (R)
Microorganisms [2]; MRSA
  Organism, effect (morphology, biofilm and growth disruption): MRSA (S)
Microorganisms [2]; S. epidermidis
  Organism, effect (morphology, biofilm and growth disruption): S. epidermidis (M)
Microorganisms [2]; S. pneumoniae
  Organism, effect (morphology, biofilm and growth disruption): S. pneumoniae (R)

## PF-556 (SLQIRMNTLTAAKASIEAA; Peptide with targeting and/or antimicrobial activity)
Microorganisms [1]
  Activities: G B
Microorganisms [2]; B. subtilis
  Organism, effect (morphology, biofilm and growth disruption): B. subtilis (C)
Microorganisms [2]; C. jeikeium
  Organism, effect (morphology, biofilm and growth disruption): C. jeikeium (D)
Microorganisms [2]; C. jejuni
  Organism, effect (morphology, biofilm and growth disruption): C. jejuni (R)
Microorganisms [2]; E. faecalis
  Organism, effect (morphology, biofilm and growth disruption): E. faecalis (A)
Microorganisms [2]; M. luteus
  Organism, effect (morphology, biofilm and growth disruption): M. luteus (A)
Microorganisms [2]; MRSA
  Organism, effect (morphology, biofilm and growth disruption): MRSA (M)
Microorganisms [2]; S. epidermidis
  Organism, effect (morphology, biofilm and growth disruption): S. epidermidis (A)
Microorganisms [2]; S. pneumoniae
  Organism, effect (morphology, biofilm and growth disruption): S. pneumoniae (D)

## PF-022 (MINELKNKNSGIMNNYVVTKESKL; Peptide with targeting and/or antimicrobial activity)
Microorganisms [1]
  Activities: G B
Microorganisms [2]; C. jeikeium
  Organism, effect: C. jeikeium (A)
Microorganisms [2]; M. luteus
  Organism, effect: M. luteus (A)
Microorganisms [2]; MRSA
  Organism, effect: MRSA (R)
Microorganisms [2]; S. epidermidis
  Organism, effect: S. epidermidis (D)

## PF-543 (NILFGIIGFVVAMTAAVIVTAISIAK; Peptide with targeting and/or antimicrobial activity)
Microorganisms [1]
  Activities: G B
Microorganisms [2]; E. coli
  Organism, effect (morphology, biofilm and growth disruption): E. coli (C)
Microorganisms [2]; M. luteus
  Organism, effect (morphology, biofilm and growth disruption): M. luteus (C)
Microorganisms [2]; MRSA
  Organism, effect (morphology, biofilm and growth disruption): MRSA (D)
Microorganisms [2]; S. epidermidis
  Organism, effect (morphology, biofilm and growth disruption): S. epidermidis (D)
Microorganisms [2]; S. mutans
  Organism, effect (morphology, biofilm and growth disruption): S. mutans (S)
Microorganisms [2]; S. pneumoniae
  Organism, effect (morphology, biofilm and growth disruption): S. pneumoniae (D)

## PF-539 (SIILTKKKRRKIPLSIDSQIYKYTFKQ; Peptide with targeting and/or antimicrobial activity)
Microorganisms [1]
  Activities: G B
Microorganisms [2]; MRSA
  Organism, effect (morphology, biofilm and growth disruption): MRSA (H)
Microorganisms [2]; S. pneumoniae
  Organism, effect (morphology, biofilm and growth disruption): S. pneumoniae (A)

## PF-375 (MDSAKAQTMRTDWLAVSCLVASAYLRSMLA; Peptide with targeting and/or antimicrobial activity)
Microorganisms [1]
  Activities: G B
Microorganisms [2]; E. coli
  Organism, effect: E. coli (C)
Microorganisms [2]; E. faecalis
  Organism, effect: E. faecalis (C)
Microorganisms [2]; MRSA
  Organism, effect: MRSA (C)
Microorganisms [2]; S. epidermidis
  Organism, effect: S. epidermidis (C)

## PF-386 (FTLTLITTIVAILNYKDKKK; Peptide with targeting and/or antimicrobial activity)
Microorganisms [1]
  Activities: G B
Microorganisms [2]; E. coli
  Organism, effect: E. coli (C)
Microorganisms [2]; E. faecalis
  Organism, effect: E. faecalis (C)
Microorganisms [2]; MRSA
  Organism, effect: MRSA (C)
Microorganisms [2]; S. epidermidis
  Organism, effect: S. epidermidis (C)

## PF-374 (HLFFVKGMFILCQKNQINDE; Peptide with targeting and/or antimicrobial activity)
Microorganisms [1]
  Activities: G B
Microorganisms [2]; E. coli
  Organism, effect: E. coli (C)
Microorganisms [2]; E. faecalis
  Organism, effect: E. faecalis (C)
Microorganisms [2]; MRSA
  Organism, effect: MRSA (M)
Microorganisms [2]; S. epidermidis
  Organism, effect: S. epidermidis (C)

## PF-355 (WIAIGLLLYFSLKNQ; Peptide with targeting and/or antimicrobial activity)
Microorganisms [1]
  Activities: G B
Microorganisms [2]; C. jejuni
  Organism, effect: C. jejuni (D)
Microorganisms [2]; E. coli
  Organism, effect: E. coli (C)
Microorganisms [2]; E. faecalis
  Organism, effect: E. faecalis (D)
Microorganisms [2]; MRSA
  Organism, effect: MRSA (A)
Microorganisms [2]; P. aeruginosa
  Organism, effect: P. aeruginosa (A)
Microorganisms [2]; S. epidermidis
  Organism, effect: S. epidermidis (C)
Microorganisms [2]; S. pneumoniae
  Organism, effect: S. pneumoniae (D)

## PF-124 (MADGQIAAIAKLHGVPVATRNIRHFQSFGVELINPWSG; Peptide with targeting and/or antimicrobial activity)
Microorganisms [1]
  Activities: G B
Microorganisms [2]; C. jeikeium
  Organism, effect: C. jeikeium (R)
Microorganisms [2]; S. epidermidis
  Organism, effect: S. epidermidis (C)

## PF-478 (HLFILKSHLKPFPPFRYTYD; Peptide with targeting and/or antimicrobial activity)
Microorganisms [1]
  Activities: G B
Microorganisms [2]; E. coli
  Organism, effect (morphology, biofilm and growth disruption): E. coli (C)
Microorganisms [2]; MRSA
  Organism, effect (morphology, biofilm and growth disruption): MRSA (H)
Microorganisms [2]; S. epidermidis
  Organism, effect (morphology, biofilm and growth disruption): S. epidermidis (C)
Microorganisms [2]; S. pneumoniae
  Organism, effect (morphology, biofilm and growth disruption): S. pneumoniae (C)

## PF-603 (IDKLKKMNLQKLSYEVRISQDGKSIYARIK; Peptide with targeting and/or antimicrobial activity)
Microorganisms [1]
  Activities: G B
Microorganisms [2]; E. coli
  Organism, effect (morphology, biofilm and growth disruption): E. coli (M)
Microorganisms [2]; M. luteus
  Organism, effect (morphology, biofilm and growth disruption): M. luteus (A)
Microorganisms [2]; MRSA
  Organism, effect (morphology, biofilm and growth disruption): MRSA (M)
Microorganisms [2]; S. epidermidis
  Organism, effect (morphology, biofilm and growth disruption): S. epidermidis (D)
Microorganisms [2]; S. pneumoniae
  Organism, effect (morphology, biofilm and growth disruption): S. pneumoniae (C)

## PF-471 (MVGKIRGVTPRNDLLNANITGQLNLNYRLI; Peptide with targeting and/or antimicrobial activity)
Microorganisms [1]
  Activities: G B
Microorganisms [2]; C. jejuni
  Organism, effect (morphology, biofilm and growth disruption): C. jejuni (D)
Microorganisms [2]; E. coli
  Organism, effect (morphology, biofilm and growth disruption): E. coli (C)
Microorganisms [2]; E. faecalis
  Organism, effect (morphology, biofilm and growth disruption): E. faecalis (C)
Microorganisms [2]; MRSA
  Organism, effect (morphology, biofilm and growth disruption): MRSA (D)
Microorganisms [2]; P. aeruginosa
  Organism, effect (morphology, biofilm and growth disruption): P. aeruginosa (A)
Microorganisms [2]; S. epidermidis
  Organism, effect (morphology, biofilm and growth disruption): S. epidermidis (C)
Microorganisms [2]; S. pneumoniae
  Organism, effect (morphology, biofilm and growth disruption): S. pneumoniae (D)

## PF-063 (IAAIIVLVLFQKGLLQIFNWILIQLQ; Peptide with targeting and/or antimicrobial activity)
Microorganisms [1]
  Activities: G B
Microorganisms [2]; B. subtilis
  Organism, effect: B. subtilis (C)
Microorganisms [2]; C. jeikeium
  Organism, effect: C. jeikeium (D)
Microorganisms [2]; C. jejuni
  Organism, effect: C. jejuni (D)
Microorganisms [2]; M. luteus
  Organism, effect: M. luteus (R)
Microorganisms [2]; MRSA
  Organism, effect: MRSA (M)
Microorganisms [2]; P. aeruginosa
  Organism, effect: P. aeruginosa (A)
Microorganisms [2]; S. epidermidis
  Organism, effect: S. epidermidis (R)
Microorganisms [2]; S. pneumoniae
  Organism, effect: S. pneumoniae (D)

## PF-482 (LVGYVRTSGTVRSYKIN; Peptide with targeting and/or antimicrobial activity)
Microorganisms [1]
  Activities: G B
Microorganisms [2]; S. pneumoniae
  Organism, effect (morphology, biofilm and growth disruption): S. pneumoniae (S)

## PF-030 (MTCHQAPTTTHQSNMA; Peptide with targeting and/or antimicrobial activity)
Microorganisms [1]
  Activities: G B
Microorganisms [2]; C. jeikeium
  Organism, effect: C. jeikeium (C)
Microorganisms [2]; M. luteus
  Organism, effect: M. luteus (C)
Microorganisms [2]; MRSA
  Organism, effect: MRSA (R)
Microorganisms [2]; S. epidermidis
  Organism, effect: S. epidermidis (D)

## PF-443 (KLLYFFNYFENLQQVHLLVQL; Peptide with targeting and/or antimicrobial activity)
Microorganisms [1]
  Activities: G B
Microorganisms [2]; E. coli
  Organism, effect (morphology, biofilm and growth disruption): E. coli (R)
Microorganisms [2]; MRSA
  Organism, effect (morphology, biofilm and growth disruption): MRSA (C)
Microorganisms [2]; S. pneumoniae
  Organism, effect (morphology, biofilm and growth disruption): S. pneumoniae (C)

## PF-460 (MEHVLPFQNTPPNIVIIYKDFTHLKSITFS; Peptide with targeting and/or antimicrobial activity)
Microorganisms [1]
  Activities: G B
Microorganisms [2]; E. coli
  Organism, effect (morphology, biofilm and growth disruption): E. coli (H)
Microorganisms [2]; E. faecalis
  Organism, effect (morphology, biofilm and growth disruption): E. faecalis (C)
Microorganisms [2]; MRSA
  Organism, effect (morphology, biofilm and growth disruption): MRSA (C)
Microorganisms [2]; S. epidermidis
  Organism, effect (morphology, biofilm and growth disruption): S. epidermidis (C)
Microorganisms [2]; S. pneumoniae
  Organism, effect (morphology, biofilm and growth disruption): S. pneumoniae (R)

## PF-379 (VFVVLFIIYLASKLLTKLFPIKK; Peptide with targeting and/or antimicrobial activity)
Microorganisms [1]
  Activities: G B
Microorganisms [2]; E. coli
  Organism, effect: E. coli (C)
Microorganisms [2]; E. faecalis
  Organism, effect: E. faecalis (C)
Microorganisms [2]; MRSA
  Organism, effect: MRSA (C)
Microorganisms [2]; S. epidermidis
  Organism, effect: S. epidermidis (C)

## PF-458 (ISLIIFIMLFVVALFKCITNYKHQS; Peptide with targeting and/or antimicrobial activity)
Microorganisms [1]
  Activities: G B
Microorganisms [2]; MRSA
  Organism, effect (morphology, biofilm and growth disruption): MRSA (M)
Microorganisms [2]; P. aeruginosa
  Organism, effect (morphology, biofilm and growth disruption): P. aeruginosa (H)
Microorganisms [2]; S. pneumoniae
  Organism, effect (morphology, biofilm and growth disruption): S. pneumoniae (M)
